Source: US5962502A, “Polyamidic acid derivatives with antigastrin activity, a method for their preparation, and their pharmaceutical use” (priority 1993, dated 1999)

Key:
central CCK-B receptor = target: T1, central CCK-B receptor (Cavia porcellus, UniProt H0VZC5); assay: Inhibition of the binding of [3-H][N-methyl-N-leucine]CCK-8 to guinea-pig cortical membranes; details: for IC50: guinea-pig cortical membranes, 150 minutes at 25° C.
T1 construct: Cerebral cortices of male white guinea-pigs were thus used; from tissue; host or cells: cerebral cortex membranes of male white guinea-pigs
T1 sequence (H0VZC5 1-426): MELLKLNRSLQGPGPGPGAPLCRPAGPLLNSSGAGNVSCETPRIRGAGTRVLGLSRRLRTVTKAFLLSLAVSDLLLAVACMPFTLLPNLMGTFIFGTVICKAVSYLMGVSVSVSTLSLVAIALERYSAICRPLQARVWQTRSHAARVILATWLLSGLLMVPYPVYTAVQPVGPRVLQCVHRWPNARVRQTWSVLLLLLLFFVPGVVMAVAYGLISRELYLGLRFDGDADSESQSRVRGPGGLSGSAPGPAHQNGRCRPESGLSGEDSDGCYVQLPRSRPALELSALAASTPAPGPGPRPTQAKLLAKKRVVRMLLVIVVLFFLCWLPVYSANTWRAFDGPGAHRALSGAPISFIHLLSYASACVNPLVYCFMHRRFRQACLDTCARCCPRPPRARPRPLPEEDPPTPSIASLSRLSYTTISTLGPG
Procedure: The ability of the compounds of the invention to interact with the central CCK-B receptor was evaluated with the use of non-sulphated [3-H] […] 225 (3) (1990), 1278-1286].
Cerebral cortices of male white guinea-pigs were thus used, according to the method mentioned above, so as to obtain a membrane content corresponding to about 300 mcg of proteins/ml. The membranes were incubated together with the radioactive tracer and the compounds under test for 150 minutes at 25° C. After the supernatant had been discarded, the radioactivity associated with the pellet was determined with a liquid scintillator. The specific binding was determined as the difference between the binding in the absence and in the presence of 5.10^-6 M CCK-8.

mouse = assay: Black and White Box test in the mouse (anxiolytic activity); type: in vivo; details: for LIGHT TIME TOTAL TIME / LIGHT-DARK MOVEMENTS / MOV. DARK % TOTAL MOV. / TOTAL MOVEMENTS: 5 minutes; for anxiolytic activity, result in words: Black and White Box test, IP
Procedure: It has recently been postulated that the central CCK-B receptor has an important role in anxiety. This is in accordance with studies also carried out in man, which have shown that the central CCK-B mechanisms have an important function in the mediation of panic attacks [Bradwejn, H. et al; J. Psychopharmacology 6 (1992), 345]. […] This experimental model, which was carried out according to Costall et al [Pharm. Biochem. Behav. 32 (1989), 777-785], used a box with dimensions of 45×21×21(h) cm divided into 2 compartments which communicated with one another through a 13×5 cm hole. The smaller compartment (1/3 of the total area) had black walls, whereas the larger had transparent walls and was illuminated by a lamp which was placed 20 cm above the box and supplied light at 20W. Under the floor there was an activity meter which recorded the movements performed by the animal in the individual compartments. The experiment was started by placing the animal in the centre of the illuminated box; as well as movements, the time which the animal spent in the dark and in the light areas and the number of movements between the 2 compartments were then recorded for 5 minutes. A control animal generally preferred to stay in the dark compartment where it felt better protected from an unusual environmental situation which put it in a state of anxiety. In this experimental model, a compound having anxiolytic activity decreased the % of movements into the dark in comparison with the total movements, increased the movements between the two light-dark compartments, and increased the % of time spent in the light in comparison with the total time.
The results obtained are shown in Table 7, where the activities obtained with compounds 9, 21 and 51 are given, tested in comparison with diazepam.

O=C(O)CNC(=O)CC[C@@H](NC(=O)c1cc(Cl)cc(Cl)c1)C(=O)N1CCC2(CCCC2)CC1 [Compound 1]
IC50 (central CCK-B receptor): 1.06 µM

O=C(O)CCNC(=O)CC[C@@H](NC(=O)c1cc(Cl)cc(Cl)c1)C(=O)N1CCC2(CCCC2)CC1 [Compound 3]
IC50 (central CCK-B receptor): 0.73 µM

O=C(O)CCCNC(=O)CC[C@@H](NC(=O)c1cc(Cl)cc(Cl)c1)C(=O)N1CCC2(CCCC2)CC1 [Compound 4]
IC50 (central CCK-B receptor): 1.25 µM

CC(NC(=O)CC[C@@H](NC(=O)c1cc(Cl)cc(Cl)c1)C(=O)N1CCC2(CCCC2)CC1)C(=O)O (stereo partly drawn) [Compound 5]
IC50 (central CCK-B receptor): 1.32 µM

CSCCC(NC(=O)CC[C@@H](NC(=O)c1cc(Cl)cc(Cl)c1)C(=O)N1CCC2(CCCC2)CC1)C(=O)O (stereo partly drawn) [Compound 7]
IC50 (central CCK-B receptor): 0.51 µM

O=C(CC[C@@H](NC(=O)c1cc(Cl)cc(Cl)c1)C(=O)N1CCC2(CCCC2)CC1)N[C@@H](C(=O)O)c1ccccc1 [Compound 13]
IC50 (central CCK-B receptor): 0.42 µM

O=C(CC[C@@H](NC(=O)c1cc(Cl)cc(Cl)c1)C(=O)N1CCC2(CCCC2)CC1)NC(Cc1ccc(Cl)cc1)C(=O)O (stereo partly drawn) [Compound 17]
IC50 (central CCK-B receptor): 0.68 µM

O=C(CC[C@@H](NC(=O)c1cc(Cl)cc(Cl)c1)C(=O)N1CCC2(CCCC2)CC1)N[C@H](Cc1cccnc1)C(=O)O [Compound 26]
IC50 (central CCK-B receptor): 0.25 µM

O=C(CC[C@@H](NC(=O)c1cccc(Cl)c1)C(=O)NCCC12CC3CC(CC(C3)C1)C2)N[C@H](Cc1c[nH]c2ccccc12)C(=O)O [Compound 31]
IC50 (central CCK-B receptor): 13.9 µM

Cc1cccc(C(=O)N[C@H](CCC(=O)N[C@H](Cc2c[nH]c3ccccc23)C(=O)O)C(=O)N2CCC3(CCCC3)CC2)c1 [Compound 32]
IC50 (central CCK-B receptor): 3.56 µM

CC(C)(C)CCNC(=O)[C@@H](CCC(=O)NC(Cc1ccccc1)C(=O)O)NC(=O)c1cccc(Cl)c1 (stereo partly drawn) [Compound 33]
IC50 (central CCK-B receptor): > 30 µM

O=C(O)CC[C@@H](NC(=O)CC[C@@H](NC(=O)c1cc(Cl)cc(Cl)c1)C(=O)N1CCC2(CCCC2)CC1)C(=O)N1CCC2(CCCC2)CC1 [Compound 36]
IC50 (central CCK-B receptor): 1.7 µM

CN(C(=O)[C@@H](CCC(=O)O)NC(=O)CC[C@@H](NC(=O)c1cc(Cl)cc(Cl)c1)C(=O)N1CCC2(CCCC2)CC1)c1ccccc1 [Compound 37]
IC50 (central CCK-B receptor): 0.7 µM

O=C(O)CC[C@@H](NC(=O)CC[C@@H](NC(=O)c1cc(Cl)cc(Cl)c1)C(=O)N1CCC2(CCCC2)CC1)C(=O)Nc1ccc2ccccc2c1 [Compound 39]
IC50 (central CCK-B receptor): 0.7 µM

O=C(O)CC[C@@H](NC(=O)CC[C@@H](NC(=O)c1cc(Cl)cc(Cl)c1)C(=O)N1CCC2(CCCC2)CC1)C(=O)NCCC12CC3CC(CC(C3)C1)C2 [Compound 40]
IC50 (central CCK-B receptor): > 30 µM

O=C(O)CC[C@@H](NC(=O)CC[C@@H](NC(=O)c1cc(Cl)cc(Cl)c1)C(=O)N1CCC2(CCCC2)CC1)C(=O)NCCc1ccccc1 [Compound 41]
IC50 (central CCK-B receptor): 0.79 µM

CCCCCN(CCCCC)C(=O)[C@@H](CCC(=O)N[C@H](Cc1c[nH]c2ccccc12)C(=O)O)NC(=O)c1ccc2ccccc2c1 [Compound 42]
IC50 (central CCK-B receptor): 1.88 µM

O=C(C[C@@H](NC(=O)c1cc(Cl)cc(Cl)c1)C(=O)N1CCC2(CCCC2)CC1)N[C@H](Cc1ccccc1)C(=O)O [Compound 44]
IC50 (central CCK-B receptor): 0.35 µM

CC(Cc1ccccc1)(NC(=O)CC[C@@H](NC(=O)c1cc(Cl)cc(Cl)c1)C(=O)N1CCC2(CCCC2)CC1)C(=O)O (stereo partly drawn) [Compound 45]
IC50 (central CCK-B receptor): 0.58 µM

CN(C(=O)c1cc(Cl)cc(Cl)c1)[C@H](CCC(=O)N[C@H](Cc1c[nH]c2ccccc12)C(=O)O)C(=O)N1CCC2(CCCC2)CC1 [Compound 46]
IC50 (central CCK-B receptor): 0.12 µM

CN(C(=O)CC[C@@H](NC(=O)c1cc(Cl)cc(Cl)c1)C(=O)N1CCC2(CCCC2)CC1)c1ccc(C(=O)O)cc1 [Compound 48]
IC50 (central CCK-B receptor): 0.44 µM

O=C(CC[C@@H](NC(=O)c1cc(Cl)cc(Cl)c1)C(=O)N1CCC2(CCCC2)CC1)Nc1cccc(C(=O)O)c1 [Compound 49]
IC50 (central CCK-B receptor): 1.39 µM

O=C(CC[C@@H](NC(=O)c1ccccc1)C(=O)N1CCC2(CCCC2)CC1)Nc1ccc(C(=O)O)cc1 [Compound 54]
IC50 (central CCK-B receptor): 9.21 µM

O=C(C[C@@H](NC(=O)c1cc(Cl)cc(Cl)c1)C(=O)N1CCC2(CCCC2)CC1)Nc1ccccc1C(=O)O [Compound 55]
IC50 (central CCK-B receptor): > 30 µM

O=C(CC[C@@H](NC(=O)c1cc(Cl)cc(Cl)c1)C(=O)N1CCC2(CCCC2)CC1)NCc1ccc(C(=O)O)cc1 [Compound 56]
IC50 (central CCK-B receptor): 19.5 µM

O=C(O)Cc1ccc(NC(=O)CC[C@@H](NC(=O)c2cc(Cl)cc(Cl)c2)C(=O)N2CCC3(CCCC3)CC2)cc1 [Compound 57]
IC50 (central CCK-B receptor): 7.73 µM

O=C(CC[C@H](NC(=O)c1cc(Cl)cc(Cl)c1)C(=O)N1CCC2(CCCC2)CC1)N[C@H](Cc1ccccc1)C(=O)O [Compound S-9, reference compound]
EFF. % VS CONTROL (LIGHT TIME TOTAL TIME) (mouse; 1.0 mg/kg IP): 3%
EFF. % VS CONTROL (LIGHT-DARK MOVEMENTS) (mouse; 1.0 mg/kg IP): 6%
EFF. % VS CONTROL (MOV. DARK % TOTAL MOV.) (mouse; 1.0 mg/kg IP): -5%
LIGHT TIME TOTAL TIME (mouse; 1.0 mg/kg IP): 28.5%
LIGHT-DARK MOVEMENTS (mouse; 1.0 mg/kg IP): 18.2
MOV. DARK % TOTAL MOV. (mouse; 1.0 mg/kg IP): 57%
TOTAL MOVEMENTS (mouse; 1.0 mg/kg IP): 528
EFF. % VS CONTROL (LIGHT TIME TOTAL TIME) (mouse; 10.0 mg/kg IP): 0%
EFF. % VS CONTROL (LIGHT-DARK MOVEMENTS) (mouse; 10.0 mg/kg IP): 0%
EFF. % VS CONTROL (MOV. DARK % TOTAL MOV.) (mouse; 10.0 mg/kg IP): +3%
LIGHT TIME TOTAL TIME (mouse; 10.0 mg/kg IP): 24.9%
LIGHT-DARK MOVEMENTS (mouse; 10.0 mg/kg IP): 14.4
MOV. DARK % TOTAL MOV. (mouse; 10.0 mg/kg IP): 62%
TOTAL MOVEMENTS (mouse; 10.0 mg/kg IP): 495
anxiolytic activity, result in words (mouse): completely inactive
times less active than its R diastereoisomer, compound 9 (centre *) (central CCK-B receptor; binding, guinea-pig cortex): about 250 times
IC50 (central CCK-B receptor): 38.6 µM
CCK-B-antagonistic activity in vitro, result in words (central CCK-B receptor; see Table 3): weak CCK-B-antagonistic activity

CN1C(=O)CN=C(c2ccccc2)c2cc(Cl)ccc21 [DIAZEPAM, diazepam, reference compound]
EFF. % VS CONTROL (LIGHT TIME TOTAL TIME) (mouse; 1.0 mg/kg IP): 19%
EFF. % VS CONTROL (LIGHT-DARK MOVEMENTS) (mouse; 1.0 mg/kg IP): 37%
EFF. % VS CONTROL (MOV. DARK % TOTAL MOV.) (mouse; 1.0 mg/kg IP): -5%
LIGHT TIME TOTAL TIME (mouse; 1.0 mg/kg IP): 29.3%
LIGHT-DARK MOVEMENTS (mouse; 1.0 mg/kg IP): 19.9
MOV. DARK % TOTAL MOV. (mouse; 1.0 mg/kg IP): 53%
TOTAL MOVEMENTS (mouse; 1.0 mg/kg IP): 508
EFF. % VS CONTROL (LIGHT TIME TOTAL TIME) (mouse; 3.0 mg/kg IP): 37%
EFF. % VS CONTROL (LIGHT-DARK MOVEMENTS) (mouse; 3.0 mg/kg IP): 54%
EFF. % VS CONTROL (MOV. DARK % TOTAL MOV.) (mouse; 3.0 mg/kg IP): -7%
LIGHT TIME TOTAL TIME (mouse; 3.0 mg/kg IP): 33.6%
LIGHT-DARK MOVEMENTS (mouse; 3.0 mg/kg IP): 22.3
MOV. DARK % TOTAL MOV. (mouse; 3.0 mg/kg IP): 52%
TOTAL MOVEMENTS (mouse; 3.0 mg/kg IP): 539
effect on the total movements parameter, result in words (mouse; 1 and 3 mg/kg): significantly increased
anxiolytic activity, result in words (mouse): active for all the parameters tested
